Earlier results in PubChem BioAssay AID1259409 (Chemical Carcinogenesis Research Information System (CCRIS), 2018).

System: rodent chemically induced tumor inhibition, incidence and multiplicity
Assay: CCRIS tumor inhibitor studies

[Mg+2]
tumour outcome (control, treated, inhibition, significance) (Carcinogen: 7,12-DIMETHYLBENZ[A]ANTHRACENE, 57-97-6, Dose [Inhibitor]: 0, 50 UG/ML IN DRINKING WATER FROM 40-90 D OF AGE THEN 0, 30 UG/ML FROM 90-180 D OF AGE AND 0, 20 UG/ML FROM 180-240 D O, Dose [Inhibitor]: 0, 50 UG/ML IN DRINKING WATER FROM 40-90 D OF AGE THEN 0, 30 UG/ML FROM 90-180 D OF AGE AND 0, 20 UG/ML FROM 180-240 D O, Route [Inhibitor]: ORAL, Species: RAT, Strain/Sex: SPRAGUE DAWLEY/FEMALE, Target Tissue: Type of Lesion: MAMMARY GLAND: ADENOCARCINOMA, FIBROADENOMA, Dose [Carcinogen]: 5 MG IN 0.2 ML SESAME OIL 1/2 D FOR 12 D BEGINNING AT 50 D OF AGE, Promoter: NONE USED): 100%, 46%, 54%, p<0.001

CC(=O)NCCCCCCNC(C)=O
tumour outcome (control, treated, inhibition, significance) (Carcinogen: 7,12-DIMETHYLBENZ[A]ANTHRACENE, 57-97-6, Dose [Inhibitor]: 0, 1% IN DRINKING WATER FOR DURATION OF STUDY (STUDY DURATION: 13 WK), Route [Inhibitor]: ORAL, Species: HAMSTER, Strain/Sex: SYRIAN/MALE, Target Tissue: Type of Lesion: CHEEK POUCH: TUMOR, Dose [Carcinogen]: 0.5% IN ACETONE/HEAVY MINERAL OIL (1:20) 2/WK FOR 11 WK, Promoter: NONE USED): 13/13 (100%), 13/13 (100%), 0%, not significant | tumour outcome (control, treated, inhibition, significance) (Carcinogen: 7,12-DIMETHYLBENZ[A]ANTHRACENE, 57-97-6, Dose [Inhibitor]: 0, 500 MG/KG BW 3/WK FOR DURATION OF STUDY (STUDY DURATION: 13 WK), Route [Inhibitor]: INTRAPERITONEAL, Species: HAMSTER, Strain/Sex: SYRIAN/MALE, Target Tissue: Type of Lesion: CHEEK POUCH: TUMOR, Dose [Carcinogen]: 0.5% IN ACETONE/HEAVY MINERAL OIL (1:20) 2/WK FOR 11 WK, Promoter: NONE USED): 13/13 (100%), 13/13 (100%), 0%, not significant | tumour outcome (control, treated, inhibition, significance) (Carcinogen: N-METHYL-N-NITROSOUREA [684-93-5], Dose [Inhibitor]: 1000 PPM IN DIET FOR 19 WK BEGINNING 1 WK PRIOR TO FIRST CARCINOGEN DOSE (STUDY DURATION: 19 WK), Route [Inhibitor]: ORAL, Species: RAT, Strain/Sex: SPRAGUE-DAWLEY/FEMALE, Target Tissue: Type of Lesion: MAMMARY GLAND: TUMOR, Dose [Carcinogen]: 40 MG/KG BW ONCE (STUDY DURATION: 19 WK), Promoter: NONE): 18/20 (90%), 17/20 (85%), 6% not significant | tumour outcome (control, treated, inhibition, significance) (Carcinogen: N-METHYL-N-NITROSOUREA [684-93-5], Dose [Inhibitor]: 2000 PPM IN DIET FOR 19 WK BEGINNING 1 WK PRIOR TO FIRST CARCINOGEN DOSE (STUDY DURATION: 19 WK), Route [Inhibitor]: ORAL, Species: RAT, Strain/Sex: SPRAGUE-DAWLEY/FEMALE, Target Tissue: Type of Lesion: MAMMARY GLAND: TUMOR, Dose [Carcinogen]: 40 MG/KG BW ONCE (STUDY DURATION: 19 WK), Promoter: NONE): 18/20 (90%), 17/20 (85%), 6%, not significant

O=C(CBr)c1ccc(Br)cc1
tumour outcome (control, treated, inhibition, significance) (Carcinogen: 7,12-DIMETHYLBENZ[A]ANTHRACENE, 57-97-6, Dose [Inhibitor]: 10 UMOL APPLIED 30-40 MIN BEFORE EACH TPA TREATMENT AND CONCURRENTLY WITH TPA (STUDY DURATION: 18 WK), Route [Inhibitor]: DERMAL, Species: MOUSE, Strain/Sex: CD-1/FEMALE, Target Tissue: Type of Lesion: SKIN: PAPILLOMA, Dose [Carcinogen]: 200 NMOL ONCE, Promoter: 12-O-TETRADECANOYLPHORBOL-13-ACETATE, 16561-29-8): 96%, 57%, 41%, not calculated | tumour outcome (control, treated, inhibition, significance) (Carcinogen: N-NITROSODIETHYLAMINE, 55-18-5, 2-ACETYLAMINOFLUORENE, 53-93-6, CARBON TETRACHLORIDE, 56-23-5, Carcinogen: N-NITROSODIETHYLAMINE, 55-18-5, 2-ACETYLAMINOFLUORENE, 53-93-6, CARBON TETRACHLORIDE, 56-23-5, Dose [Inhibitor]: 0, 0.75% IN DIET FOR 29 WK ADMINISTERED TO RATS BEARING PERSISTENT NODULES FOLLOWING CARCINOGEN TREATMENT (STUDY DURATIO, Route [Inhibitor]: ORAL, Species: RAT, Strain/Sex: F344/MALE, Target Tissue: Type of Lesion: LIVER: HEPATOCELLULAR CARCINOMA, Dose [Carcinogen]: 200 MG/KG BW DEN ONCE, 0.002% 2-AAF IN DIET FOR 2 WK, 1 MG/KG BW CCL4 MIDWAY IN 2-AAF TREATMENT, Dose [Carcinogen]: 200 MG/KG BW DEN ONCE, 0.002% 2-AAF IN DIET FOR 2 WK, 1 MG/KG BW CCL4 MIDWAY IN 2-AAF TREATMENT, Promoter: NONE USED): 7/8 (88%), 11/11 (100%), -12%, not significant | tumour outcome (control, treated, inhibition, significance) (Carcinogen: N-NITROSODIETHYLAMINE, 55-18-5, 2-ACETYLAMINOFLUORENE, 53-93-6, CARBON TETRACHLORIDE, 56-23-5, Carcinogen: N-NITROSODIETHYLAMINE, 55-18-5, 2-ACETYLAMINOFLUORENE, 53-93-6, CARBON TETRACHLORIDE, 56-23-5, Dose [Inhibitor]: 0, 0.75% IN DIET FOR 29 WK ADMINISTERED TO RATS BEARING PERSISTENT NODULES FOLLOWING CARCINOGEN TREATMENT (STUDY DURATIO, Route [Inhibitor]: ORAL, Species: RAT, Strain/Sex: F344/MALE, Target Tissue: Type of Lesion: LIVER: HEPATOCELLULAR CARCINOMA, Dose [Carcinogen]: 200 MG/KG BW DEN ONCE, 0.002% 2-AAF IN DIET FOR 2 WK, 1 ML/KG BW CCL4 MIDWAY IN 2-AAF TREATMENT, Dose [Carcinogen]: 200 MG/KG BW DEN ONCE, 0.002% 2-AAF IN DIET FOR 2 WK, 1 ML/KG BW CCL4 MIDWAY IN 2-AAF TREATMENT, Promoter: PHENOBARBITAL, 50-06-6): 12/12 (100%), 13/14 (93%), 7%, not significant

CC(C)=CCC1=C(O)[C@@](O)(CC=C(C)C)C(=O)C(C(=O)CC(C)C)=C1O
tumour outcome (control, treated, inhibition, significance) (Carcinogen: 7,12-DIMETHYLBENZ[A]ANTHRACENE : 57-97-6, Dose [Inhibitor]: 0, 1 MG IN 100 µL ACETONE/DMSO (9:1) 2/WK FOR 17 WK APPLIED 30 MIN PRIOR TO EACH PROMOTER DOSE (STUDY DURATION: 18 WK), Route [Inhibitor]: DERMAL, Species: MOUSE, Strain/Sex: ICR/FEMALE, Target Tissue: Type of Lesion: SKIN: PAPILLOMA, Dose [Carcinogen]: 50 UG IN 100 µL ACETONE ONCE, Promoter: 12-O-TETRADECANOYLPHORBOL-13-ACETATE, 16561-29-8): 100%, 7%, 93%, not calculated

CCCCCCCCCCCCCCCC(=O)OCC1(O)CC23CC[C@@H]4c5ccoc5C=CC4(C)C2CCC1C3 (stereo partly specified)
tumour outcome (control, treated, inhibition, significance) (Carcinogen: 7,12-DIMETHYLBENZ[A]ANTHRACENE, 57-97-6, Dose [Inhibitor]: 0, 60 MG 1/D FOR 3 D BEGINNING 3 D PRIOR TO CARCINOGEN DOSE (STUDY DURATION: 20 WK), Route [Inhibitor]: GAVAGE, Species: RAT, Strain/Sex: SPRAGUE-DAWLEY/FEMALE, Target Tissue: Type of Lesion: MAMMARY GLAND: TUMOR, Dose [Carcinogen]: 12 MG IN 1 ML OLIVE OIL ONCE, Promoter: NONE USED): 84%, 56%, 33%, p<0.05 | tumour outcome (control, treated, inhibition, significance) (Carcinogen: 7,12-DIMETHYLBENZ[A]ANTHRACENE, 57-97-6, Dose [Inhibitor]: 0, 60 MG ONCE 4 HR PRIOR TO CARCINOGEN DOSE (STUDY DURATION: 20 WK), Route [Inhibitor]: GAVAGE, Species: RAT, Strain/Sex: SPRAGUE-DAWLEY/FEMALE, Target Tissue: Type of Lesion: MAMMARY GLAND: TUMOR, Dose [Carcinogen]: 12 MG IN 1 ML OLIVE OIL ONCE, Promoter: NONE USED): 84%, 63%, 25%, p<0.05
